In brackets after ≈: the same amount, converted by molar mass.
Tests used:
[1] = molecular target: T1, Plasmodium falciparum lysyl t-RNA synthetase (Pf-KRS1) (Plasmodium falciparum, UniProt Q8IDJ8); assay: Pf-KRS1 inhibition biochemical assay (Kinase-Glo, ATP depletion); conditions: read-out: Pf-KRS pIC50 (converted)
T1 construct: Pf KRS1-; made in house; host or cells: E. coli BL21 (DE3)
Method in brief: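 Recombinant Pf-KRS1 (75 nM working concentration) in HEPES/KOH/MgCl2/KCl buffer with 3 μM ATP, 60 μM L-lysine, 0.4 mg/ml yeast tRNA and pyrophosphatase; compounds at 50 μM–2.5 nM final. Reaction ran 5 h at room temperature, then remaining ATP was read by Kinase-Glo luminescence. IC50 came from nonlinear fits of % inhibition against controls.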

M. tuberculosis H37Rv = assay: In vitro inhibition of M. tuberculosis H37Rv (MIC, resazurin); type: cell-based; conditions: Mycobacterium tuberculosis, read-out: Mtb MIC
Cryptosporidium parvum = assay: In vitro Crytosporidium inhibition assay; type: cell-based; conditions: Cryptosporidium parvum; read-out: Cryptosporidium parvum pEC50 (converted)
Text: Assay Method for Measurement of In Vitro Inhibition of Crytosporidium.
These experiments were run in accordance with the method of Besssoff et. al. Antimicrob. Agents Chemother. 2013, 57:1804-1814. Results from these experiments are provided in the Experimental Results hereinafter.

T1 sequence (Q8IDJ8 entry or part of it, looked up, natural form): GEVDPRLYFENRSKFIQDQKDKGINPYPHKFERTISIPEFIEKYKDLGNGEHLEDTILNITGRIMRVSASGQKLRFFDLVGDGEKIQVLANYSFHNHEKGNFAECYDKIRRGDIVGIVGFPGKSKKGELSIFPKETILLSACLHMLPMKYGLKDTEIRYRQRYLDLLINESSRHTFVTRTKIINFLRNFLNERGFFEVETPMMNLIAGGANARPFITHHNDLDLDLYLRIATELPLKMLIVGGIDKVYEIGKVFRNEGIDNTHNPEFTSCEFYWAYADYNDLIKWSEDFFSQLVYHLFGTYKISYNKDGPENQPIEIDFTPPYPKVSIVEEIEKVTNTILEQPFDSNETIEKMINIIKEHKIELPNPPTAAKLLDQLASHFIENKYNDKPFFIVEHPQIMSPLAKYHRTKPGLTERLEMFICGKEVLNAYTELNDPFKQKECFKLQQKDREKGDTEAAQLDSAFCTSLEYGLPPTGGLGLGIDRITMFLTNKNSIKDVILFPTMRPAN

O=C(NCC1CCCCC1)c1cc(=O)c2cc(F)cc(O)c2o1 [Example 70, N-(cyclohexylmethyl)-6-fluoro-8-hydroxy-4-oxo-4H-chromene-2-carboxamide]
IC50 [1]: 50.1 nM
MIC (M. tuberculosis H37Rv): 30 µM (≈ 9.58 µg/mL)
EC50 (Cryptosporidium parvum): 39.8 nM
